Results from US11297838B2, “Pesticidal compositions and methods” (CORTEVA AGRISCIENCE LLC, priority 2018, dated 2022).

Assays:
[1] = test system: Beet Armyworm (Spodoptera exigua, LAPHEG); test: Insecticidal test for beet armyworm (BAW), 128-well diet tray assay; assay type: in vivo; settings: 168 h, 50 μg/cm^2 on artificial diet, second instar larvae, five to seven days, 25° C., read-out: BAW rating, % Control (or Mortality)
Method: Insecticidal Test for Beet Armyworm (Spodoptera exigua, LAPHEG) (“BAW”)
Bioassays on beet armyworm (BAW; Spodoptera exigua: Lepidoptera) are conducted using a 128-well diet tray assay. One to five second instar BAW larvae are placed in each well (3 mL) of the diet tray that had been previously filled with 1 mL of artificial diet to which 50 μg/cm^2 of the test compound (dissolved in 50 μL of 90:10 acetone-water mixture) had been applied (to each of eight wells) and then allowed to dry. Trays are covered with a clear self-adhesive cover, vented to allow gas exchange, and held at 25° C., 14:10 light-dark for five to seven days. Percent mortality is recorded for the larvae in each well; activity in the eight wells is then averaged. In the reporting of the results, the “BAW & CL Rating Table” was used.

[2] = test system: Cabbage Looper (Trichloplusia ni, TRIPNI); test: Insecticidal test for cabbage looper (CL), 128-well diet tray assay; assay type: in vivo; settings: Trichoplusia ni, 168 h; 50 μg/cm^2 on artificial diet, second instar larvae, five to seven days, 25° C.; read-out: CL rating, % Control (or Mortality)
Method: Insecticidal Test for Cabbage Looper (Trichloplusia ni, TRIPNI) (“CL”)
Bioassays on cabbage looper (CL; Trichloplusia ni: Lepidoptera) are conducted using a 128-well diet tray assay. One to five second instar CL larvae are placed in each well (3 mL) of the diet tray that had been previously filled with 1 mL of artificial diet to which 50 μg/cm^2 of the test compound (dissolved in 50 μL of 90:10 acetone-water mixture) had been applied (to each of eight wells) and then allowed to dry. Trays are covered with a clear self-adhesive cover, vented to allow gas exchange, and held at 25° C., 14:10 light-dark for five to seven days. Percent mortality is recorded for the larvae in each well; activity in the eight wells is then averaged. In the reporting of the results, the “BAW & CL Rating Table” was used.

Row | Structure (SMILES) | mortality at 50 µg/cm2 [1] [%] | mortality at 50 µg/cm2 [2] [%]
1 | Cc1cc(Cl)c(N2C(=O)CS/C2=N\C(=O)OCC(F)c2ccc(-c3ncn(-c4ccc(OC(F)(F)F)cc4)n3)cc2)cc1C (stereo not shown) [A38, 2-Fluoro-2-(4-(1-(4-(trifluoromethoxy)phenyl)-1H-1,2,4-triazol-3-yl)phenyl)ethyl (Z)-(3-(2-chloro-4,5-dimethylphenyl)-4-oxothiazolidin-2-ylidene)carbamate] | 0 | 50 to 100
2 | O=C(/N=C1\SCC(=O)N1c1cccc2c1CCCC2)OCC(F)c1ccc(-c2ncn(-c3ccc(OC(F)(F)F)cc3)n2)cc1 (stereo not shown) [A39, 2-Fluoro-2-(4-(1-(4-(trifluoromethoxy)phenyl)-1H-1,2,4-triazol-3-yl)phenyl)ethyl (Z)-(4-oxo-3-(5,6,7,8-tetrahydronaphthalen-1-yl)thiazolidin-2-ylidene)carbamate] | 50 to 100 | 50 to 100
3 | CCOc1ccccc1N1C(=O)CS/C1=N\C(=O)OCC(F)c1ccc(-c2ncn(-c3ccc(OC(F)(F)F)cc3)n2)cc1 (stereo not shown) [A40, 2-Fluoro-2-(4-(1-(4-(trifluoromethoxy)phenyl)-1H-1,2,4-triazol-3-yl)phenyl)ethyl (Z)-(3-(2-ethoxyphenyl)-4-oxothiazolidin-2-ylidene)carbamate] | 50 to 100 | 50 to 100
4 | CCC(C)Oc1ccc(C)cc1N1C(=O)CS/C1=N\C(=O)OCC(F)c1ccc(-c2ncn(-c3ccc(OC(F)(F)F)cc3)n2)cc1 (stereo not shown) [A41, 2-Fluoro-2-(4-(1-(4-(trifluoromethoxy)phenyl)-1H-1,2,4-triazol-3-yl)phenyl)ethyl (Z)-(3-(2-(sec-butoxy)-5-methylphenyl)-4-oxothiazolidin-2-ylidene)carbamate] | 50 to 100 | 50 to 100
5 | CCc1cccc(C)c1N1C(=O)CS/C1=N\C(=O)OCC(F)c1ccc(-c2ncn(-c3ccc(OC(F)(F)F)cc3)n2)cc1 (stereo not shown) [A42, 2-Fluoro-2-(4-(1-(4-(trifluoromethoxy)phenyl)-1H-1,2,4-triazol-3-yl)phenyl)ethyl (Z)-(3-(2-ethyl-6-methylphenyl)-4-oxothiazolidin-2-ylidene)carbamate] | 0 to 50 | 50 to 100
6 | CC(C)c1ccc(Cl)cc1N1C(=O)CS/C1=N\C(=O)OCCc1ccc(-c2ncn(-c3ccc(OC(F)(F)C(F)(F)F)cc3)n2)cc1 [A43, 4-(1-(4-(Perfluoroethoxy)phenyl)-1H-1,2,4-triazol-3-yl)phenethyl (Z)-(3-(5-chloro-2-isopropylphenyl)-4-oxothiazolidin-2-ylidene)carbamate] | 50 to 100 | 0
7 | Cc1ccc(C(C)C)c(N2C(=O)CS/C2=N\C(=O)OCCc2ccc(-c3ncn(-c4ccc(OC(F)(F)C(F)(F)F)cc4)n3)cc2)c1 [A44, 4-(1-(4-(Perfluoroethoxy)phenyl)-1H-1,2,4-triazol-3-yl)phenethyl (Z)-(3-(2-isopropyl-5-methylphenyl)-4-oxothiazolidin-2-ylidene)carbamate] | 50 to 100 | 50 to 100
8 | CC(C)c1ccccc1N1C(=O)CS/C1=N\C(=O)OCCc1ccc(-c2ncn(-c3ccc(OC(F)(F)C(F)(F)F)cc3)n2)cc1 [A45, 4-(1-(4-(Perfluoroethoxy)phenyl)-1H-1,2,4-triazol-3-yl)phenethyl (Z)-(3-(2-isopropylphenyl)-4-oxothiazolidin-2-ylidene)carbamate] | 50 to 100 | 50 to 100
9 | Cc1ccc(C(C)C)c(N2C(=O)CS/C2=N\C(=O)OCC(Cl)c2ccc(-c3ncn(-c4ccc(OC(F)(F)F)cc4)n3)cc2)c1 (stereo not shown) [A46, 2-Chloro-2-(4-(1-(4-(trifluoromethoxy)phenyl)-1H-1,2,4-triazol-3-yl)phenyl)ethyl (Z)-(3-(2-isopropyl-5-methylphenyl)-4-oxothiazolidin-2-ylidene)carbamate] | 50 to 100 | 50 to 100
10 | CC(C)c1ccccc1N1C(=O)CS/C1=N\C(=O)OCC(Cl)c1ccc(-c2ncn(-c3ccc(OC(F)(F)F)cc3)n2)cc1 (stereo not shown) [A47, 2-Chloro-2-(4-(1-(4-(trifluoromethoxy)phenyl)-1H-1,2,4-triazol-3-yl)phenyl)ethyl (Z)-(3-(2-isopropylphenyl)-4-oxothiazolidin-2-ylidene)carbamate] | 50 to 100 | 50 to 100
11 | CC(C)c1ccc(Cl)cc1N1C(=O)CS/C1=N\C(=O)OCC(Cl)c1ccc(-c2ncn(-c3ccc(OC(F)(F)F)cc3)n2)cc1 (stereo not shown) [A48, 2-Chloro-2-(4-(1-(4-(trifluoromethoxy)phenyl)-1H-1,2,4-triazol-3-yl)phenyl)ethyl (Z)-(3-(5-chloro-2-isopropylphenyl)-4-oxothiazolidin-2-ylidene)carbamate] | 50 to 100 | 50 to 100
12 | CCC(C)Oc1ccc(C)cc1N1C(=O)CS/C1=N\C(=O)OC(C)Cc1ccc(-c2ncn(-c3ccc(OC(F)(F)F)cc3)n2)cc1 (stereo not shown) [A49, 1-(4-(1-(4-(Trifluoromethoxy)phenyl)-1H-1,2,4-triazol-3-yl)phenyl)propan-2-yl (Z)-(3-(2-(sec-butoxy)-5-methylphenyl)-4-oxothiazolidin-2-ylidene)carbamate] | 50 to 100 | 50 to 100
13 | CC(Cc1ccc(-c2ncn(-c3ccc(OC(F)(F)F)cc3)n2)cc1)OC(=O)/N=C1\SCC(=O)N1c1ccccc1C(C)C (stereo not shown) [A50, 1-(4-(1-(4-(Trifluoromethoxy)phenyl)-1H-1,2,4-triazol-3-yl)phenyl)propan-2-yl (Z)-(3-(2-isopropylphenyl)-4-oxothiazolidin-2-ylidene)carbamate] | 50 to 100 | 50 to 100
14 | CCOc1ccccc1N1C(=O)CS/C1=N\C(=O)OC(C)Cc1ccc(-c2ncn(-c3ccc(OC(F)(F)F)cc3)n2)cc1 (stereo not shown) [A51, 1-(4-(1-(4-(Trifluoromethoxy)phenyl)-1H-1,2,4-triazol-3-yl)phenyl)propan-2-yl (Z)-(3-(2-ethoxyphenyl)-4-oxothiazolidin-2-ylidene)carbamate] | 50 to 100 | 50 to 100
15 | CCc1cccc(C)c1N1C(=O)CS/C1=N\C(=O)OC(C)Cc1ccc(-c2ncn(-c3ccc(OC(F)(F)F)cc3)n2)cc1 (stereo not shown) [A52, 1-(4-(1-(4-(Trifluoromethoxy)phenyl)-1H-1,2,4-triazol-3-yl)phenyl)propan-2-yl (Z)-(3-(2-ethyl-6-methylphenyl)-4-oxothiazolidin-2-ylidene)carbamate] | 50 to 100 | 50 to 100
16 | Cc1ccc(C(C)C)c(-n2ccs/c2=N\C(=O)OCCc2ccc(-c3ncn(-c4ccc(OC(F)(F)F)cc4)n3)cc2)c1 [A53, 4-(1-(4-(Trifluoromethoxy)phenyl)-1H-1,2,4-triazol-3-yl)phenethyl (Z)-(3-(2-isopropyl-5-methylphenyl)thiazol-2(3H)-ylidene)carbamate] | 50 to 100 | 50 to 100
17 | Cc1ccc(C(C)C)c(-n2ccs/c2=N\C(=O)OCC(F)c2ccc(-c3ncn(-c4ccc(OC(F)(F)F)cc4)n3)cc2)c1 (stereo not shown) [A54, 2-Fluoro-2-(4-(1-(4-(trifluoromethoxy)phenyl)-1H-1,2,4-triazol-3-yl)phenyl)ethyl (Z)-(3-(2-isopropyl-5-methylphenyl)thiazol-2(3H)-ylidene)carbamate] | 50 to 100 | 50 to 100
